# “And” between values parts separate entries of the source, which are not always exact repeats. Equal entries are not always repeated.
# What was measured:
# [1] = test system: patients with hypercholesterolemia at moderate cardiovascular (CV) risk; assay: Example 2: safety (TEAEs, laboratory parameters, vital signs)
# Excerpt: The clinical laboratory data consisted of urinalysis and blood analysis, hematology (RBC count, red blood cell distribution width (RDW), reticulocyte count, hemoglobin, hematocrit, platelets, WBC count with differential blood count), standard chemistry (glucose, sodium, potassium, chloride, bicarbonate, calcium, phosphorous, urea nitrogen, creatinine, uric acid, total protein, LDH, albumin, γ Glutamyl Transferase [γGT]), Hepatitis C antibody, liver panel (ALT, AST, ALP, and total bilirubin), and CPK.
# Safety endpoints—Vital signs measurement: Vital signs included: HR, systolic and diastolic BP in sitting position.
# The safety analysis included all randomized and treated patients. Safety data were analyzed by descriptive statistics.
# [2] = test system: patients with hypercholesterolemia at moderate cardiovascular (CV) risk; assay: Example 2: Phase 3 monotherapy trial mAb316P versus ezetimibe, lipid parameters; assay type: in vivo, human; details: for Lp(a) adjusted mean (SE) % change from baseline to week 24 / TGs adjusted mean (SE) % change from baseline to week 24: combined estimate; for LDL-C LS mean (SE) change from baseline (%): baseline to Week 24; for time-course of LDL-C lowering: week 4 to week 24, on-treatment; for between-group LS mean (SE) difference in LDL-C: week 12
# Excerpt: Randomization was stratified according to DM status. […] Patients were followed for 8 weeks after the last visit of the Double Blind Treatment Period (DBTP).
# Double-blind treatment period (DBTP)—A randomized, double-blind double dummy study treatment period of 24 weeks. The first injection during the double-blind period was done at the site on the day of randomization (Week 0 [D1]-V3) and as soon as possible after the call to IVRS/IWRS for randomization into the study. The subsequent injections were done by the patient (self-injection) or another designated person (such as spouse, relative, etc.) at a patient-preferred location (home, etc.).
# The primary efficacy endpoint was the percent change in calculated LDL-C from baseline to week 24, which is defined as: 100×(calculated LDL-C value at Week 24−calculated LDL-C value at baseline)/calculated LDL-C value at baseline.
# Total-C, HDL-C, TG, Apo B, Apo A-1, and Lp (a) were directly measured. LDL-C was calculated using the Friedewald formula at all visits (except Week −1 and Follow Up visit). If TG values exceeded 400 mg/dL (4.52 mmol/L) then the central lab reflexively measured (via the beta quantification method) the LDL-C rather than calculating it. Non-HDL-C was calculated by subtracting HDL-C from the total-C. Ratio Apo B/Apo A-1 was calculated.
# The primary endpoint was assessed in the intent-to-treat (ITT) population, which included all randomized patients who had at least 1 calculated LDL-C value at baseline and at one of the planned time points from weeks 4 to 24.
# Missing data were accounted for by means of a mixed effect model with repeated measures (MMRM) approach (Siddiqui et al., MMRM vs. LOCF: a comprehensive comparison based on simulation study and 25 NDA datasets”, J Biopharm Stat, vol. 19, pp. 227-246 (2009); National Research Council, “The Prevention and Treatment of Missing Data in Clinical Trials” Panel on Handling Missing Data in Clinical Trials. Committee on National Statistics, Division of Behavioral and Social Sciences and Education. 2010. Washington, D.C.: The National Academies Press; Andersen et al., “On the practical application of mixed effects models for repeated measures to clinical trial data”, Pharm Stat., vol. 12, pp. 7-16 (2013)). For the ITT analysis, all available measurements at planned time points from weeks 4 to 24 (meaning week 4, 8, 12, 16, and 24), whatever their status on or off-treatment, were used in the MMRM. One MMRM model was used for LDL-C to provide least-squares means estimates and comparison between treatment arms at weeks 24 and 12. Further details on the model are given below. For the on-treatment analysis, all available on-treatment measurements (i.e. up to 21 days after last injection/3 days after last capsule, whichever comes first) at planned time points from weeks 4 to 24 were used in the MMRM model. In the same way as for the ITT analysis, one model was used to provide estimates and comparison at week 24 and week 12 for the on-treatment analysis. Continuous key secondary endpoints other than Lp(a) and triglycerides were analyzed in a similar fashion as the primary endpoint and description of the statistical methodology for secondary endpoints and subgroup analysis is provided below.
# Outputs from the model were the baseline-adjusted least-squares (LS) mean estimates at week 24 for both treatment groups with their corresponding standard error (SE). Appropriate contrast statement was used to test the difference between these estimates at the 2-sided 5% alpha level.
# To analyze the key secondary endpoints, a hierarchical procedure was used to control type I error and handle multiplicity. Secondary efficacy endpoints were tested sequentially using the order given above, in the intent-to-treat population.
# [3] = Week 12, individual patient 6 who reported high blood glucose
# [4] = Week 24, individual patients (arbitrary numbers 1-5) who reported high blood glucose
substance,measurement,setting,value
"mAb316P: human anti-PCSK9 antibody; heavy chain SEQ ID NO:5, light chain SEQ ID NO:9; HCVR SEQ ID NO:1, LCVR SEQ ID NO:6",Albumin ≦25 g/L,[1]; Laboratory parameters,0/51
same,Aspartate aminotransferase >3× ULN,[1]; Laboratory parameters,0/52
same,Creatine kinase >3× ULN,[1]; Laboratory parameters,0/51
same,Creatine kinase >10× ULN,[1]; Laboratory parameters,0/51
same,Glucose ≦70 mg/dL (3.9 mmol/L) and <LLN,[1]; Laboratory parameters,0/52
same,Patients with any TEAE,[1]; Safety Population,36 (69.2) n (%)
same,Patients with any TEAE leading to death,[1]; Safety Population,0 n (%)
same,Patients with any TEAE leading to treatment discontinuation,[1]; Safety Population,5 (9.6) n (%)
same,Patients with any treatment emergent SAE,[1]; Safety Population,1 (1.9) n (%)
same,Arthralgia,[1]; TEAE,3 (5.8) n (%)
same,Diarrhea,[1]; TEAE,6 (11.5) n (%)
same,Dizziness,[1]; TEAE,1 (1.9) n (%)
same,Headaches,[1]; TEAE,3 (5.8) n (%)
same,Influenza,[1]; TEAE,6 (11.5) n (%)
same,Nasopharyngitis,[1]; TEAE,12 (23.1) n (%)
same,Nausea,[1]; TEAE,3 (5.8) n (%)
same,Upper respiratory tract infection,[1]; TEAE,2 (3.8) n (%)
same,Urinary tract infection,[1]; TEAE,0 n (%)
same,back pain,[1]; TEAE,1 (1.9) n (%)
same,General disorders and administration site conditions,[1]; TEAEs of interest,5 (9.6) n (%)
same,Injection site reaction,[1]; TEAEs of interest,1 (1.9) n (%)
same,Muscle disorders,[1]; TEAEs of interest,2 (3.8) n (%)
same,Musculoskeletal and connective tissue disorders,[1]; TEAEs of interest,8 (15.4) n (%)
same,Musculoskeletal and connective tissue disorders NEC,[1]; TEAEs of interest,2 (3.8) n (%)
same,Musculoskeletal pain,[1]; TEAEs of interest,1 (1.9) n (%)
same,Myalgia,[1]; TEAEs of interest,2 (3.8) n (%)
same,muscle spasms,[1]; TEAEs of interest,0 n (%)
same,Fasting blood glucose,[1]; [3],135 mg/dL
same,HbA1c,[1]; [3],6.3%
same,Fasting blood glucose,[1]; [4],121 mg/dL and 112 mg/dL (2×) and 70 mg/dL and 183 mg/dL
same,HbA1c,[1]; [4],6.5% and 5.9% (2×) and 6.2% and 7.7%
same,Muscle-related AEs,[1]; discussion,4%
same,injection related AEs,[1]; disposable autoinjector,< 2%
same,Muscle-related TEAEs,[1]; in vivo,2 (4%) patients (%)
same,overall percentage of patients who experienced at least one TEAE,[1]; in vivo,69%
same,"patients with abnormalities in vital signs (blood pressure, heart rate)",[1]; in vivo,no patients
same,patients with blood glucose >126 mg/dL (7 mmol/L),[1]; in vivo,6 patients
same,patients who experienced at least 1 LDL-C value<25 mg/dL,[1]; mAb316P 75 mg Q2W,Three
same,tolerability and safety,[1]; overall conclusion,tolerability and safety comparable with ezetimibe
same,Apo A-1 LS mean (SE) % change from baseline to week 24,[2]; ITT,4.7 (1.6) %
same,Apo B LS mean (SE) % change from baseline to week 24,[2]; ITT,−36.7 (2.3) %
same,HDL-C LS mean (SE) % change from baseline to week 24,[2]; ITT,6.0 (1.9) %
same,Non-HDL-C LS mean (SE) % change from baseline to week 24,[2]; ITT,−40.6 (2.8) %
same,Total cholesterol LS mean (SE) % change from baseline to week 24,[2]; ITT,−29.6 (2.1) %
same,Lp(a) adjusted mean (SE) % change from baseline to week 24,[2]; ITT,−16.7 (3.7) %
same,TGs adjusted mean (SE) % change from baseline to week 24,[2]; ITT,−11.9 (4.2) %
same,LDL-C LS mean (SE) Week 24 change from baseline (%),"[2]; ITT, excluding post up-titration data from patients up-titrated having LDL-C <100 mg/dL",−44.3%
same,LS mean (SE) percent reductions in LDL-C from baseline to week 24,"[2]; ITT, given as reduction",47 (3) %
same,LDL-C reduction at week 12,"[2]; ITT, mAb316P 75 mg Q2W before up-titration, ezetimibe 10 mg daily",48 (3) % and 48%
same,Apo A-1 LS mean (SE) % change from baseline to week 24,[2]; On-treatment,5.3 (1.6) %
same,Apo B LS mean (SE) % change from baseline to week 24,[2]; On-treatment,−40.8 (1.9) %
same,HDL-C LS mean (SE) % change from baseline to week 24,[2]; On-treatment,8.0 (1.9) %
same,Non-HDL-C LS mean (SE) % change from baseline to week 24,[2]; On-treatment,−47.1 (1.9) %
same,Total cholesterol LS mean (SE) % change from baseline to week 24,[2]; On-treatment,−34.2 (1.6) %
same,Lp(a) adjusted mean (SE) % change from baseline to week 24,[2]; On-treatment,−17.7 (4.1) %
same,TGs adjusted mean (SE) % change from baseline to week 24,[2]; On-treatment,−14.7 (4.4) %
same,"LDL-C (on treatment), mean (SD)","[2]; Week 4, non-uptitrated at Week 12 (n = 32)",59.8 (13.6) mg/dL
same,"LDL-C (on treatment), mean (SD)","[2]; Week 4, uptitrated at Week 12 (n = 14)",83.5 (23.6) mg/dL
same,"LDL-C (on treatment), mean (SD)","[2]; Week 12, non-uptitrated at Week 12 (n = 32)",58.8 (16.8) mg/dL
same,"LDL-C (on treatment), mean (SD)","[2]; Week 12, uptitrated at Week 12 (n = 14)",78.3 (22.8) mg/dL
same,LDL-C LS mean difference (SE) % MAb316P versus ezetimibe,"[2]; Week 24, ITT, excluding post up-titration data from patients up-titrated having LDL-C <100 mg/dL",−28.7%
same,LDL-C LS mean difference (SE) % MAb316P versus ezetimibe,"[2]; Week 24, ITT, listed as MAb316P",−31.6%
same,"LDL-C (on treatment), mean (SD)","[2]; Week 24, non-uptitrated, 75 mg Q2W (n = 32)",57.8 (16.2) mg/dL
same,"LDL-C (on treatment), mean (SD)","[2]; Week 24, uptitrated to 150 mg Q2W at Week 12 (n = 14)",74.8 (19.5) mg/dL
same,LDL-C LS mean (SE) change from baseline (%),[2]; ITT,−47.2%
same,LDL-C LS mean (SE) change from baseline (%),[2]; On-treatment,−54.1%
same,estimated proportions of patients with LDL-C reductions ≧50% at week 12,"[2]; before up-titration, ITT",58%
same,proportions of patients with LDL-C reductions ≧50% at week 12,"[2]; before up-titration, on-treatment analysis",65%
same,reduction in Lp(a),"[2]; current study, discussion",18%
same,patients who achieved LDL-C<70 mg/dL at Week 8,"[2]; of the 46 mAb316P-treated patients in PK analyses, 75 mg Q2W",32 patients
same,LS mean (SE) LDL-C reductions from baseline to week 24,"[2]; on-treatment analysis, given as reduction",54 (2) %
same,LDL-C reduction at week 12,"[2]; on-treatment analysis, mAb316P 75 mg Q2W",53 (2) % and 53%
same,reduction in LDL-C at 12 weeks,"[2]; summary, mAb316P 75mg Q2W arm, monotherapy population",~50%
same,time-course of LDL-C lowering,[2],robust LDL-C reductions maintained from week 4 to end of the treatment period at week 24
same,time-course of LDL-C lowering,[2]; listed as MAb316P,sustained LDL-lowering effect from weeks 4 to 24
same,between-group LS mean (SE) difference in LDL-C,[2]; ITT,−28 (4) %
same,between-group LS mean (SE) difference in LDL-C,[2]; on-treatment analysis,−33 (3) %
same,Apo A-1 LS mean difference (SE) % MAb316P versus ezetimibe,"[2]; week 24, ITT",5.3 (2.2) %
same,Apo B LS mean difference (SE) % MAb316P versus ezetimibe,"[2]; week 24, ITT",−25.8 (3.3) %
same,HDL-C LS mean difference (SE) % MAb316P versus ezetimibe,"[2]; week 24, ITT",4.4 (2.7) %
same,LDL-C LS mean difference (SE) % MAb316P versus ezetimibe,"[2]; week 24, ITT",−32 (4) %
same,Lp(a) mean difference (SE) % MAb316P versus ezetimibe,"[2]; week 24, ITT",−4.4 (5.3) %
same,Non-HDL-C LS mean difference (SE) % MAb316P versus ezetimibe,"[2]; week 24, ITT",−25.5 (4.1) %
same,TGs mean difference (SE) % MAb316P versus ezetimibe,"[2]; week 24, ITT",−1.2 (5.9) %
same,Total cholesterol LS mean difference (SE) % MAb316P versus ezetimibe,"[2]; week 24, ITT",−18.7 (3.0) %
same,Apo A-1 LS mean difference (SE) % MAb316P versus ezetimibe,"[2]; week 24, On-treatment",6.1 (2.3) %
same,Apo B LS mean difference (SE) % MAb316P versus ezetimibe,"[2]; week 24, On-treatment",−29.2 (2.6) %
same,HDL-C LS mean difference (SE) % MAb316P versus ezetimibe,"[2]; week 24, On-treatment",6.2 (2.7) %
same,LDL-C LS mean difference (SE) % MAb316P versus ezetimibe,"[2]; week 24, On-treatment",−36.9%
same,Lp(a) mean difference (SE) % MAb316P versus ezetimibe,"[2]; week 24, On-treatment",−5.4 (5.7) %
same,Non-HDL-C LS mean difference (SE) % MAb316P versus ezetimibe,"[2]; week 24, On-treatment",−30.5 (2.7) %
same,TGs mean difference (SE) % MAb316P versus ezetimibe,"[2]; week 24, On-treatment",−1.9 (6.0) %
same,Total cholesterol LS mean difference (SE) % MAb316P versus ezetimibe,"[2]; week 24, On-treatment",−22.2 (2.3) %
